This data set can be described thus: photoluminescence quantum yield (fraction); solvent given as SMILES.

Each structure is given as a SMILES string.

Experimental findings from the Deep4Chem optical property database are described below.

For `CCOC(=O)CSc1nc(-c2ccccc2)c(C)c(C#N)c1C#N`, the photoluminescence quantum yield (in C1COCCO1) amounted to 0.031; the photoluminescence quantum yield (in CC#N) worked out at 0.036; the photoluminescence quantum yield (in CCO) was 0.037; the photoluminescence quantum yield (in CCOC(C)=O) came out at 0.037; the photoluminescence quantum yield (in ClC(Cl)Cl) was 0.033; the photoluminescence quantum yield (in c1ccccc1) was found to be 0.038.
Turning to `CCCCN1C(=O)c2cc(Oc3ccc(C(C)(C)C)cc3)c3c4c(Oc5ccc(C(C)(C)C)cc5)cc5c(=O)[nH]/c(=C\c6ccc7ccccc7n6)c6cc(Oc7ccc(C(C)(C)C)cc7)c(c7c(Oc8ccc(C(C)(C)C)cc8)cc(c2c37)C1=O)c4c56`, the photoluminescence quantum yield is 0.3 (in C1CCOC1), 0.313 (in Cc1ccccc1) and 0.332 (in ClCCl).
For the setting “in ClC(Cl)Cl”, `CCCCCCCCC1(CCCCCCCC)c2cc(-c3ccccc3)ccc2-c2ccc(-c3ccccc3)cc21` gave a photoluminescence quantum yield of 0.85.
Turning to `CCC1=C(C)C2=C(c3cc(C(=O)Cl)cc(C4=C5C(C)=C(CC)C(C)=[N+]5[B-](F)(F)n5c(C)c(CC)c(C)c54)c3)c3c(C)c(CC)c(C)n3[B-](F)(F)[N+]2=C1C`, the photoluminescence quantum yield (in C1CCOC1) stood at 0.87; the photoluminescence quantum yield (in CC#N) turned out to be 0.41; the photoluminescence quantum yield (in CN(C)C=O) came out at 0.61; the photoluminescence quantum yield (in Cc1ccccc1) amounted to 0.83; the photoluminescence quantum yield (in ClC(Cl)Cl) came out at 0.7.
`CC(C)c1cccc(C(C)C)c1N1C(=O)c2cccc3c(Oc4ccc(C(C)(C)c5ccccc5)cc4)ccc(c23)C1=O` registered a photoluminescence quantum yield (in ClCCl) of 0.11.
Consider `O=S1(=O)c2ccc(-c3c4ccccc4cc4ccccc34)cc2-c2cc(-c3c4ccccc4cc4ccccc34)ccc21`, for which the photoluminescence quantum yield was 0.39 (in C1CCCCC1), 0.13 (in CC#N) and 0.24 (in ClCCl).
Where the note is “in O”, `CC[N+]1(CC)CN2C(=N1)C(C(=O)O)=Cc1cc(Cl)ccc12` registered a photoluminescence quantum yield of 0.352.
`COc1ccc2c(c1)N(c1ccccc1-c1ccccc1)c1cc3c(cc1=N2)Oc1c(cc(C(C)(C)C)cc1C(C)(C)C)N=3` had a photoluminescence quantum yield (in CCCCCC) of 0.34.
Molecule `Fc1ccc(-c2ccc(-c3cc(-c4ccccn4)nc(-c4ccccn4)c3)cc2)c(F)c1` registered a photoluminescence quantum yield (in ClCCl) of 0.16.
For the molecule `CC(C)(C)C1Nc2ccccc2C(=O)N1Cc1ccccc1` (stereo not drawn), the photoluminescence quantum yield is, setting by setting: (in CC#N) 0.09; (in CO) 0.034; (in ClC(Cl)Cl) 0.055; (in c1ccccc1) 0.08.
Regarding `CCOC(=O)c1c2c3c(ccc(F)c3c3cc4c(cc13)[Si](C)(C)O[Si]4(C)C)N(C)C2=O`, for the setting “in CC#N”, the photoluminescence quantum yield amounted to 0.47.
For the molecule `Cc1cc(C)c(B(c2cc(-c3ccc(N(C)C)cc3)sc2-c2sc(-c3ccc(N(C)C)cc3)cc2P(=O)(c2ccccc2)c2ccccc2)c2c(C)cc(C)cc2C)c(C)c1`, the photoluminescence quantum yield (in CO) is 0.18.
For the molecule `Cc1cc2c(o1)=CC1=C(C(F)(F)F)c3cc4oc(C)cc4n3[B-](F)(F)[N+]=21`, the photoluminescence quantum yield by setting is: (in C1CCOC1) 0.92; (in CC#N) 0.84; (in CCO) 0.87; (in CO) 0.7; (in Cc1ccccc1) 0.97; (in ClC(Cl)Cl) 0.98.
As to `COc1ccc(C2=N/C(=C\c3ccccc3)C(=O)O2)cc1OC`, the photoluminescence quantum yield (in C1COCCO1) was determined as 0.02.
On to `F[B-]1(F)n2c(c3ccccc3c2-c2ccccc2)C=C2c3ccccc3C(c3ccccc3)=[N+]21`, for which the photoluminescence quantum yield was found to be 0.57 (in C1CCOC1) and 0.88 (in ClCCl).
In turn, `C[Si]1(c2ccccc2)C(c2ccc3c(c2)c2ccccc2n3-c2ccccc2)=C(c2ccccc2)C(c2ccccc2)=C1c1ccc2c(c1)c1ccccc1n2-c1ccccc1` came in with a photoluminescence quantum yield (in C1CCOC1) of 0.04.
`COc1ccc(/C=C/c2nc(-c3ccc([N+](=O)[O-])cc3)[nH]c2/C=C/c2ccc(OC)cc2)cc1` showed a photoluminescence quantum yield (in ClCCl) of 0.
In turn, `CC(C)(C)c1ccc(N(c2ccc(C(C)(C)C)cc2)c2ccc(S(=O)(=O)c3ccc(N(c4ccc(C(C)(C)C)cc4)c4ccc(C(C)(C)C)cc4)cc3)cc2)cc1` came in with a photoluminescence quantum yield (in Cc1ccccc1) of 0.65.
Take `COc1cc(C2=C(c3cc(OC)c(OC)c(OC)c3)C(c3ccc(C(C)(C)C)cc3)=[N+]3C2=Nc2c(-c4cc(OC)c(OC)c(OC)c4)c(-c4cc(OC)c(OC)c(OC)c4)c(-c4ccc(C(C)(C)C)cc4)n2[B-]3(F)F)cc(OC)c1OC`: the photoluminescence quantum yield (in Cc1ccccc1) was 0.001.
For the molecule `c1ccc2cc(-n3c4ccccc4c4ccccc43)ccc2c1`, the photoluminescence quantum yield (in C1CCCCC1) came to 0.48, the photoluminescence quantum yield (in CCOC(C)=O) is 0.46 and the photoluminescence quantum yield (in CO) is 0.32.
Consider `CO[B-]1(OC)n2c(C)cc(C)c2C(c2ccc(I)cc2)=C2C(C)=CC(C)=[N+]21`, for which the photoluminescence quantum yield (in ClC(Cl)Cl) is 0.52.
`C(=C\c1ccc2ccccc2c1)/c1ccc(Nc2ccccc2)cc1` had a photoluminescence quantum yield (in CC#N) of 0.28 and a photoluminescence quantum yield (in CCCCCC) of 0.46.
Turning to `Cc1cc(-c2ccc(N(c3ccccc3)c3ccccc3)cc2)c2nsnc2c1-c1ccc(C(C)(C)C)cc1`, the photoluminescence quantum yield (in ClCCl) worked out at 0.19.
Where the note is “in C1COCCO1”, `CC(C)CN1C(=O)/C(=C/c2ccc(C#N)cc2)C=C1c1ccccc1` showed a photoluminescence quantum yield of 0.153.
`C[Si]1(C)O[Si](C)(C)c2cc3nc4ccc([N+](=O)[O-])cc4c(-c4ccccc4)c3cc2[Si](C)(C)O1`: the photoluminescence quantum yield (in ClCCl) is 0.44.
On to `CCN(CC)c1c2ccc(=[N+]3CCCCC3)cc-2oc2cc(N3CCCCC3)ccc12`, for which the photoluminescence quantum yield (in ClCCl) stood at 0.11.
`CC[C@H](C)COc1ccc(C2=C3C(C)=CC(C)=[N+]3[B-](F)(F)n3c(C)cc(C)c32)cc1` returned a photoluminescence quantum yield (in ClCCl) of 0.87.
With `CCC12C(=C3C(=C4c5ccc(-c6ccccc6)cc5S(=O)(=O)C41CC)C(F)(F)C(F)(F)C3(F)F)c1ccc(-c3ccccc3)cc1S2(=O)=O` (stereo not drawn), the photoluminescence quantum yield (in C1COCCO1) was 0.87.
`F[B-]1(F)n2c(nc(Br)c2Br)-c2cccc[n+]21` yielded a photoluminescence quantum yield (in C1CCCCC1) of 0.47; a photoluminescence quantum yield (in C1CCOC1) of 0.32; a photoluminescence quantum yield (in C1COCCO1) of 0.35; a photoluminescence quantum yield (in CC#N) of 0.32; a photoluminescence quantum yield (in CCCCCC) of 0.45; a photoluminescence quantum yield (in CO) of 0.31. The same molecule returned a photoluminescence quantum yield (in ClC(Cl)Cl) of 0.41.
In the case of `c1ccc(-c2c3ccc(=[N+]4CCCCC4)cc-3oc3cc(N4CCCCC4)ccc23)cc1`, the photoluminescence quantum yield reads like this: (in CCO) 0.3; (in ClCCl) 0.89.
Regarding `COc1cc(N(c2ccc(C=C(C#N)C#N)c(OC)c2)c2ccc(C=C(C#N)C#N)c(OC)c2)ccc1C=C(C#N)C#N`, the photoluminescence quantum yield reads like this: (in C1COCCO1) 0.025; (in CC#N) 0.047; (in CC(C)=O) 0.074; (in CCOC(C)=O) 0.166; (in CN(C)C=O) 0.026; (in CO) 0.043. The photoluminescence quantum yield reads like this: (in Cc1ccccc1) 0.018; (in ClC(Cl)Cl) 0.025; (in ClCCl) 0.028.
For `COC(=O)/C(C#N)=c1\s/c(=c2/s/c(=C(/C#N)C(=O)OC)c3cc(-c4ccccc4)sc23)c2sc(-c3ccccc3)cc12`, under “in Cc1ccccc1”, the photoluminescence quantum yield is 0.366.
As for `O=Cc1ccc(-c2cccc(-c3nc4ccccc4s3)c2O)o1`, the photoluminescence quantum yield reads like this: (in CCO) 0.0846; (in ClCCl) 0.111; (in O) 0.01.
Molecule `CC1=[N+]2C(=Cc3ccc(C)n3[B-]2(F)F)C=C1c1cc2n(c1)[B-](F)(F)[N+]1=CC=CC1=C2c1c(C)cc(C)cc1C` displayed a photoluminescence quantum yield (in C1CCCCC1) of 0.98 and a photoluminescence quantum yield (in CCOC(C)=O) of 0.11.
With `C(#Cc1ncc(-c2ccccc2)o1)c1cccnc1`, the photoluminescence quantum yield (in ClCCl) was 0.13.
`CCCCCCCCCCCCCCCCCCOC(=O)/C=C/C1=CC2=C(c3c(C)cc(C)cc3C)c3cc(/C=C/C(=O)OCCCCCCCCCCCCCCCCCC)cn3[B-](F)(F)[N+]2=C1` returned a photoluminescence quantum yield (in ClCCl) of 0.34.
Molecule `Cc1cc2c(ccc3c(C)[n+](C)c(C)cc32)c(C)[n+]1C` registered a photoluminescence quantum yield (in CC#N) of 0.29.
Turning to `Cc1ccc(/C(C#N)=C/c2cc(/C=C(\C#N)c3ccc(C)cc3)c(-c3ccc(N(c4ccccc4)c4ccccc4)cc3)cc2-c2ccc(N(c3ccccc3)c3ccccc3)cc2)cc1`, the photoluminescence quantum yield is 0.093 (in C1CCCCC1); 0.045 (in C1CCOC1); 0.121 (in CCCCCC); 0.049 (in CCOC(C)=O); 0.06 (in Cc1ccccc1); 0.048 (in ClC(Cl)Cl). This molecule also registered a photoluminescence quantum yield (in ClCCl) of 0.028.
As to `CC1(C)c2ccccc2N(c2ccc(-c3cc(C#N)c(C#N)cc3-c3ccc(N4c5ccccc5C(C)(C)c5ccccc54)cc3)cc2)c2ccccc21`, the photoluminescence quantum yield stood at 0.59 (in Cc1ccccc1) and 0.86 (in c1cc(-c2cccc(-n3c4ccccc4c4ccccc43)c2)cc(-n2c3ccccc3c3ccccc32)c1).
Regarding `COc1ccc(-n2c3ccccc3c3cc(C=C(C#N)C#N)ccc32)cc1`, the photoluminescence quantum yield is, setting by setting: (in C1CCOC1) 0.03; (in CC#N) 0.01; (in CC(C)=O) 0.018; (in CCOC(C)=O) 0.05; (in CO) 0.015; (in CS(C)=O) 0.01. The molecule also registered a photoluminescence quantum yield (in Cc1ccccc1) of 0.15 and a photoluminescence quantum yield (in ClC(Cl)Cl) of 0.035.
Consider `N#Cc1cc(-n2c3ccccc3c3cc(Br)ccc32)c(-n2c3ccccc3c3cc(Br)ccc32)cc1C#N`, for which the photoluminescence quantum yield by setting is: (in C1CCOC1) 0.057; (in c1ccc2c(c1)c1ccccc1n2-c1ccc(-c2ccc(-n3c4ccccc4c4ccccc43)cc2)cc1) 0.543.
`O=c1c2ccccc2sc2ccc(-n3c4ccccc4c4ccccc43)cc12` showed a photoluminescence quantum yield (in O=P(c1ccccc1)(c1ccccc1)c1ccccc1Oc1ccccc1P(=O)(c1ccccc1)c1ccccc1) of 0.512.
Regarding `O=C1c2ccccc2C2=Nc3cccc4cccc(c34)N12`, the photoluminescence quantum yield (in ClCCl) is 0.02.
Turning to `CCCC1=Cc2nc1ccc1[nH]c(cc1CCO)c1nc(ccc3[nH]c2cc3CCC)C(CCO)=C1`, where the note is “in Cc1ccccc1”, the photoluminescence quantum yield was 0.4.
For `COC(=O)COc1ccc(/C=C/C2=[N+]3C(=C(c4ccccc4)c4c(C)cc(C)n4[B-]3(F)F)C(C)=C2)cc1`, under “in CO”, the photoluminescence quantum yield stood at 1.
